The values below come from patent publication US20240307363A1, “METHODS FOR TREATING A PULMONARY DISEASE WITH AN ALK-5 (TGF BETA R1) INHIBITOR” (Thirona Bio, Inc., priority 2021, published 2024).

Series [1] can be described thus: Intrinsic clearance in human liver microsomes. Conditions: pH 7.4, 0.1 μM test compound, 0.1 mg/mL protein, 1 mM NADPH. It counts as in vitro ADME. On the procedure:
Assay methods that evaluate the intrinsic clearance (CLINT) in human liver microsomes (HLMs) have been described in the art (Drug Metab. Dispos., (2005), 33(9), 1304-1311 BMC Pulmonary Medicine (2018), 18(63), 1-13). Representative compounds are tested as follows for their intrinsic clearance (CLINT) in human liver microsomes as follows.
A […] microsomal incubation cofactor solution was prepared with 100 mM potassium phosphate buffered to pH 7.4 (BD Biosciences, Woburn, Mass.) supplemented with 2 mM NADPH (Sigma-Aldrich, St. Louis, Mo.). 10 mM DMSO stocks of test compound are diluted and spiked into the cofactor solution to yield a 0.2 μM concentration (0.02% v/v DMSO). Aliquots of frozen human liver microsomes (Bioreclamation IVT, Baltimore Md.) are thawed and diluted into 100 mM potassium phosphate buffer to yield microsomal protein concentrations of 0.2 mg/mL. Cofactor/drug and microsomal solutions are pre-warmed separately for 4 minutes in a water bath held at 37° C. Incubations (n=1) are started by the combination of equal volumes of cofactor/drug solution with microsomal solution. The final concentration of test compound is 0.1 μM with a final […] protein concentration of 0.1 mg/mL and final NADPH concentration of 1 mM. […] Samples are then injected onto an AB Sciex API 4000 triple quadrupole mass spectrometer for quantitation by LC-MS/MS. […]

Series [2] relates to bleomycin-induced lung fibrosis. Briefly: Efficacy study in bleomycin lung fibrosis model. It counts as in vivo. Conditions: mice. On the procedure:
Compound 3 may be used to prevent and reverse lung fibrosis and improve lung function and exercise capacity. Male C57BL6/J mice (7-9 weeks old) from the Jackson Laboratory (Bar Harbor, ME), are used for efficacy studies. […] Bleomycin (1-5 U/kg) in […] is intratracheally sprayed into mice lightly anaesthetized with isoflurane (5% in 100%02). Control animals receives […] of 0.9% saline. […] Animals are treated until the end of the study (day 21 post-bleomycin administration). Lung Function and Exercise Capacity: Invasive lung function measurements are taken at specified time points following bleomycin. Mice are anesthetized with 2.5 mg sodium pentobarbital (Abbott Labs, IL), and the trachea cannulated. Animals are mechanically ventilated using a computer-controlled piston ventilator (flexiVent, SCIREQ Inc., Montreal, Canada: tidal volume=10 ml/kg, respiratory rate of 150 breaths/min, 3 cmH2O positive end-expiratory pressure). To test exercise capacity animals are placed on a treadmill at a 5% incline at a speed to 10 m/minute and the speed increased 1 m/minute every 4 minutes of the test until exhausted. Baseline exercise capacity for each mouse is assessed 2 days prior to either saline or bleomycin administration and then once weekly after administration at days 6, 12, and 19 post-instillation. Bronchoalveolar Lavage Cell Assessment: Immediately following lung function measurements, mice are exsanguinated, bronchoalveolar lavage fluid (BALF) is collected, and total and differential cell counts are performed. […] Samples are mixed and centrifuged before injection for LC/MS/MS analysis. LC/MS/MS analysis is conducted by gradient HPLC with selective reaction monitoring (SRM). The calibration range was 40-2,000 ng/ml. The LC/MS/MS system used for the analysis consisted of an AB-Sciex API4000 with an electrospray source connected to an Agilent 1200 pump, a Waters 2777 autosampler, and an Agilent 1100 series column oven. Chromatographic analysis is conducted by HILIC HPLC with an Ascentis Express HILIC ([…], 2.7 um) column. The SRM transition is m/z 132 to m/z 41. Histology: After performing lung function measurements, whole lungs (that are not subject to bronchoalveolar lavage) are inflated under 25 cm H2O pressure with 10% neutral buffered formalin through the tracheal cannula and immersed in formalin for at least 24 h. After being processed into paraffin blocks, the lungs are sectioned ([…]) and stained with either hematoxylin and cosin (H&E) or immunolabeled with an anti-collagen I antibody (rabbit polyclonal, Genetex Inc., Irvine, CA), to assess fibrotic changes in the lungs. To determine the fibrosis histopathology score for the lung of each mouse, the entire left and right longitudinal lung sections (at the level of tracheal bifurcation) are scored separately at 100× magnification and the scores were combined (total score range 0-8). Grading criteria are as follows: Grade 0=no apparent fibrosis; Grade 1=minimal fibrosis with rare foci of mostly interstitial alveolar septal fibrosis affecting less than 5% of the entire lung section; Grade 2=mild fibrosis characterized by multiple foci with thickening of alveolar septa by fibrosis and progressing to regions with fibrous deposition within the alveolar spaces with some damage to the alveoli, affecting 5-25% of the entire lung section; Grade 3=moderate fibrosis with multiple or single coalescing large areas of fibrosis effacing the alveoli with definitive damage to pulmonary architecture, affecting 25-50% of the entire lung section; Grade 4=marked fibrosis with severe distortion of pulmonary parenchyma by large contiguous fibrous areas, affecting 50-75% of the entire lung section. For collagen I IHC quantification, glass slides are scanned at 20× using a Zeiss Mirax scanner (Carl Zeiss Microimaging. Thornwood, NY), and digital slides generated were analyzed using Definiens Tissue Studio software (Definiens, Munich, Germany). […]

For series [3], the system named is luc-CT26 tumor outgrowth in the lungs. Put plainly: Efficacy study in a syngeneic lung cancer model (luc-CT26 cells i.v., lung bioluminescence). Conditions: BALB/c mice. It counts as in vivo. On the procedure: Compound 3 may be used to suppress tumor growth in the lungs of a syngeneic cancer model when administered alone or in combination with an immunotherapeutic agent. Six- to eight-week old BALB/c mice are used for in vivo efficacy studies in accordance with IACUC guidelines. Firefly luciferase-expressing CT-26 mouse colon carcinoma cells (luc-CT26, CSC-RR0237, Creative Biogene, Shirley, NY, USA) are grown at 37° C. in a 5% CO2 humidified atmosphere in Dulbecco's Modified Eagle's Medium (D6429, Dominique Dutscher, Brumath, France) supplemented with 10% foetal bovine serum (500105NIDD, Dominique Dutscher), 0.2% glucose (19002-013, Gibco, Thermo Fisher Scientific, Hampton, NH, USA), 2 mM L-[…], Dominique Dutscher), 100 U/ml penicillin and 100 μg/ml streptomycin (15140155, Gibco, Thermo Fisher Scientific). Cell suspensions are prepared by enzymatic treatment with trypsin-EDTA (11560626, Thermo Fisher Scientific). Luc-CT26 cells (2×10^5 cells/mouse) are injected intravenously into BALB/c mice to generate the cancer model in which tumor outgrowth in the lungs is observed. Following injection of CT26 cells and starting on day 6, the mice are monitored 3 times a week (i.e., day 6, day 8, day 11, day 13, etc.) using an IVIS spectrum imaging system (Caliper, PerkinElmer) after ip injection of D-luciferin. […] Body weight is measured twice weekly.

Series [4] concerns the target ALK5 (Homo sapiens (Human), UniProt P36897). Briefly: In vitro screen for ALK5 kinase inhibition (ALK5 phosphorylation of α-Casein, filter-plate radiometric). Conditions: ALK5 protein 2 nM final, α-Casein substrate; mean of two or more IC50 values. It counts as biochemical.
Procedure: Representative compounds are tested as follows for inhibition of ALK5 autophosphorylation activity and of the ALK5 phosphorylation of α-Casein.
Representative compounds are screened using the assay procedure for ALK5 kinase activity as described below.
In a 96 well filter-bottom plate (Millipore, #MSDV N6B 50), 58 μL Assay Buffer is added to reach well. Add 10 μL of Cold ATP mix in Assay Buffer, then 10 μL of a 1:10 dilution of α-Casein stock. Then add 2 μL of compound being tested (DMSO) at a 50× final concentration. Hot ATP mix (10 μL) is added, and the reaction is started with the addition of 10 μL of a 1:350 dilution of the ALK5 protein (2 nM final) in Assay Buffer with 0.05% BSA (Bovine Serum Albumin). […] The reaction is then stopped with the addition of 100 μL of ice-cold 20% TCA (trichloroacetic acid). The assay is then incubated for at least 1 hour at 4° C., and then the contents of each well are filtered by suction through the filter. The wells are washed three times with 200 μL ice-cold 10% TCA. The plate bottom is blotted before and after removing plastic sub-base, and dried overnight at room temperature. Add 30 μL of scintillation fluid, and count 1 minute per well on a Wallac Tri-Lux scintillation counter.
For series [5] the following is noted: rats, chronic (>3 months) administration; cited from earlier work.
The conditions of series [6]: dogs, chronic (>3 months) administration; cited from earlier work.
The conditions of series [7]: rats; cited from earlier work.
Series [8] concerns heart valves. Conditions: preclinical animal model; all heart valves at all doses tested; cited from earlier work.
Series [9] concerns bleomycin model. Conditions: cited from earlier work.
For series [10], the system named is bleomycin-induced pulmonary fibrosis. Conditions: bleomycin-challenged rats, cited from earlier work.
The conditions of series [11]: cynomolgus monkey, in vivo; cited from earlier work.
The conditions of series [12]: cited from earlier work.

Like-named read-outs stand apart in the source and are kept apart here.

Sequence of ALK5 (P36897 34-503, species assumed): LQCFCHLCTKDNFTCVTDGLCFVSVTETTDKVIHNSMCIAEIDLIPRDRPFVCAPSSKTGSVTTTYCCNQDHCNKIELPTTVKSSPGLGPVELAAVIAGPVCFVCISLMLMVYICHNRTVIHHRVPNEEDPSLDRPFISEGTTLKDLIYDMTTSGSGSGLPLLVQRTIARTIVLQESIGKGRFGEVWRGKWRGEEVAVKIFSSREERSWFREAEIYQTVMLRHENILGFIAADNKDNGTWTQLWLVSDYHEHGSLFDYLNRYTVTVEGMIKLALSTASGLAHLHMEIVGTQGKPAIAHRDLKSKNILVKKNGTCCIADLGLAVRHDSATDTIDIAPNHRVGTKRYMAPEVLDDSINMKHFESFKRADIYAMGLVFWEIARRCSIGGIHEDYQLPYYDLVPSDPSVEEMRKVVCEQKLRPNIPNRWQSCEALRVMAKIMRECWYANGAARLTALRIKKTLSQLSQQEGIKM

In general, CLint scaled refers to a measure of how fast metabolising enzymes remove a compound, apart from limits set by blood flow. As to `Cc1cccc(-n2ncc(C)c2-c2cc3cnccc3s2)n1` [Compound 3, 2-[4-methyl-1-(6-methylpyridin-2-yl)-1H-pyrazol-5-yl]thieno[3,2-c]pyridine], the CLint scaled at 0.1 μM in series [1] came to 199 mL/min/kg. Besides, the HP content result in series [2] (4-hydroxyproline, intranasal) is “significant reduced”. In series [2] (dosed intranasally, prophylactic or therapeutic, until day 21), the bleomycin-induced lung fibrosis entry is “prevents and/or reverses”. Besides, in series [2] (intranasal), the “collagen 1 assessed by IHC” value was “reduced”, the “fibrosis histopathology scores in the lung” value is “improvements” and the lung function entry is on record as “significantly improved”. Moreover, the exercise capacity result in series [2] (intranasal, treadmill) was “increased”. The “bioluminescence intensity (BLI) in the lungs” value in series [3] (Compound 3 alone, intranasal) was “Statistically significant reduction”. For the same molecule, in series [3] (combination with an immunotherapeutic agent), the “efficacy as measured by reduction in BLI” value was “increased efficacy”.

As usually defined, the IC50 is the midpoint of a concentration-inhibition curve. Low readings indicate higher potency, high ones lower potency. Molecule `CCc1cnn(-c2cccc(C)n2)c1-c1cc2cnccc2s1` [Compound 7] yielded an IC50 in series [4] of 4.33 nM.

On to `Cc1cccc(-c2nn3c(c2-c2ccnc4ccc(C(N)=O)cc24)CCC3)n1` [Compound 41, galunisertib], for which the organ toxicities entry in series [5] and in series [6] was “caused multiple organ toxicities” in each case.

As to `O=C(NC1CCOCC1)c1ccc(-c2cc(-c3c[nH]nc3-c3ccccn3)ccn2)cc1` [Compound 46], in [7], the physeal dysplasia entry is “induced physeal dysplasia”.

On to `c1ccc(-c2nc3c(c(-n4ccc5cnccc54)n2)CCC3)nc1` [Compound 47], for which, in series [8], the heart valve lesions result is recorded as “induced heart valve lesions”.

For the molecule `Cc1ccc(Oc2ccnc(Nc3ccc(S(N)(=O)=O)cc3)c2)c(C)n1` [Compound 48], in [8], the heart valve lesions result is on record as “induced heart valve lesions”.

For the molecule `Cc1cccc(-c2[nH]ncc2-c2ccc(F)c(-c3cnn(CCO)c3)c2)n1` [Compound R-268712], the antifibrotic efficacy result in series [9] is recorded as “strong antifibrotic efficacy”.

Take `Cc1cccc(-c2[nH]c(C(C)(C)C)nc2-c2ccc3nccnc3c2)n1` [SB-525334]: the “parameters of lung function” value in series [10] (after onset of fibrosis, vs vehicle-treated controls) is reported as “significant dose-dependent improvements”. Besides, in series [10], the pulmonary pathology result is on record as “significant reduction”.

For “Fresolimumab: a “pan” TGF-β antibody capable of neutralizing all human isoforms of TGF-β”, in series [11], the “epithelial hyperplasia of the gingiva, bladder and nasal turbinate epithelium” value is listed as “induce an epithelial hyperplasia”. In addition, in series [12] (human, in vivo), the adverse events entry is “bleeding and anemia issues”. Besides, the clinical anti-fibrotic efficacy result in series [12] (scleroderma patients) was “clear clinical anti-fibrotic efficacy”.
